Reference: patent US5304474A, “Hydrophobic peptide esters and amides” (Board of Regents, The University of Texas System, priority 1991, dated 1994)

Assays:
[1] = tested on: natural killer cells (NK); test: NK function: lysis of K562 target cells (51Cr release) after preincubation of lymphocytes with compound
[2] = tested on: epidermal carcinoma line, HEp-2; test: 51Cr release toxicity assay
Experimental: In some experiments, toxicity of Leu-Leu-OMe for a variety of cell populations was assessed by ^51 Cr release In assays where cells obtained from suspension culture were to be used, cells were labeled with Na2^51 CrO4 (ICN, Plainview, N.Y.) for 60-90 minutes at 37° C. and then washed three times. Cells were then suspended in PBS (2.5×10^6 /ml) and incubated in microtiter plates, 50 microL/well with indicated concentrations of Leu-Leu-OMe for 15 minutes at room temperature. […] Following ^51 Cr labeling, wells were thoroughly washed and varying concentrations of Leu-Leu-OMe added in 50 microL PBS and the plates incubated for 15 minutes at room temperature.
Following such initial serum-free incubations, 200 microL/well of medium RPMI containing 10% FBS were added and the plates incubated for another 4 hours prior to removal of 100 microliters of supernatant. Radioactivity in the supernatant was measured in an auto-gamma scintillation spectrometer (Packard Instrument Co., Downers Grove, Ill.). The percent specific release was calculated from the formula: [formula] in which maximal release refers to cpm obtained in wells containing 50% lysing agent (American Scientific Products, McGraw Park, Ill.) and spontaneous release refers to cpm released by cells incubated in control medium in the absence of Leu-Leu-OMe or the lysing agent.

[3] = tested on: B6 spleen cells (NK, allospecific cytotoxic T cells); test: Cytotoxic function of B6 spleen cells after incubation; assay type: cell-based, murine
spleen cells = test: Donor cell viability and subsets after treatment; assay type: cell-based, mice
Description: Female, 8-16-wk-old, C57BL/6J (B6) and (C57BL/6J x DBA/2J)F1 mice (B6D2F1) were used as donors and recipients, respectively. For some experiments B6 donors were […] 70×10^6 cells/ml either in phosphate-buffered saline (PBS) or in Leu-Leu-OMe dissolved in PBS. Leu-Leu-OMe was synthesized from leucyl-leucine as previously described (10). […]
Immediately after treatment with Leu-Leu-OMe, there was less than a 5% loss of viable donor cells.

hemopoietic stem cells = test: Stem cell function: splenic 125I-UdR uptake 5 d after transfer into irradiated syngeneic recipients; assay type: in vivo, mice; conditions: 250 micro-M
Experimental: Bone marrow cells or marrow and spleen cell mixtures were incubated in PBS with or without 250 micro-M Leu-Leu-OMe as above and then infused into 950 cGy irradiated syngeneic recipients. 5 d later, splenic 5-iodo-2'-deoxyuridine-^125 I (^125 I-UdR) uptake was measured as previously described (15).
To assay the effects of Leu-Leu-OMe on hemopoietic stem cells, we incubated marrow or mixtures of marrow and spleen cells in PBS with or without Leu-Leu-OMe and measured splenic ^125 I-UdR uptake 5 d after transplantation into irradiated syngeneic recipients (18). […] Since human marrow obtained for use in transplantation has variable amounts of peripheral blood contamination, we also studied the stem cell function of a mixture of murine spleen and marrow incubated with Leu-Leu-OMe. […] Histological studies were conducted of spleens from irradiated mice. B6 mice were irradiated with 950 cGy and given no marrow (irradiation control), or given syngeneic bone marrow cells that had been incubated in PBS with or without 250 micro-M Leu-Leu-OMe. 5 d later spleens were examined histologically. Irradiation control spleens were sparsely populated, with no hemopoietic elements. Recipients of marrow treated with 250 micro-M Leu-Leu-OMe had the vast majority of their splenic red pulp packed with erythroblasts, but also had numerous peritrabecular areas containing megakaryocytes and granulocytic elements.

CTL precursors = test: Elimination of cytotoxic T lymphocytes (6 day MLC, lysis of allogeneic stimulator lymphoblasts); assay type: cell-based, human
Experimental: Experiments were also designed to assess the relative sensitivity of NK and CTL to Leu-Leu-OMe. In the studies detailed in FIGS. 8 and 9, cytotoxicity assays were performed over a broad range of E:T ratios and units of lytic activity arising from equal numbers of responding lymphocytes were calculated and compared. […] Only after exposure to greater than 250 micromolar Leu-Leu-OMe were all CTL precursors eliminated.
Non-adherent lymphocytes (2.5×10^6 /ml) were incubated with the indicated concentrations of Leu-Leu-OMe for 15 minutes. Cells were then washed and either placed in mixed lymphocyte culture or assayed for specific lysis of K562 cells (NK). After 6 day MLC, cells were assayed for specific lysis of allogeneic stimulator lymphoblasts (CTL) or K562 (AcNK). Data are expressed as percent of control lytic units (mean+SEM, n=6).
Both values were also higher than the mean concentration of Leu-Leu-OMe required to diminish spontaneous NK lytic activity by 75% (35 micromolar±4 micromolar). […] Thus, only after MLC activation did CTL display a sensitivity to Leu-Leu-OMe toxicity that was equal to that of NK cells.

[4] = tested on: CD16(+), CD4(+), CD8(+) lymphocytes; test: Lymphocyte subsets of PBL stained with alpha-CD16, alpha-CD4, alpha-CD8; assay type: cell-based, human
Description: Thus, as previously reported (see prior Examples and J. Immunol. 1986; 136:1038-1048), exposure of human PBL to 250 micro-M Leu-Leu-OMe results in loss of all CD16(+) NK cells, and the majority of CD8(+) T cells and thereby results in reciprocal enrichment of the CD4(+) T cell subset which is largely Leu-Leu-OMe resistant (see Table 13).

NK cells = test: Loss of NK cells from PBM, anti-NK (leu 11b) staining; assay type: cell-based, human; conditions: 15 minute exposure, 2 hours at 37° C. (FIG. 6)
Experimental: In the experiments depicted in FIG. 6, freshly isolated PBM (2.5×10^6 /ml PBS and 1g/l glucose) were incubated at room temperature with varying concentrations of Leu-Leu-OMe. After a 15 minute exposure to this compound, the cells were washed, incubated for 2 hours at 37° C. and then assessed for the percentage of remaining viable cells which were stained by anti-MP or anti-NK monoclonal antibodies. Preincubation with greater than 25-50 micromola Leu-Leu-OMe led to loss of NK cells.
Anti-MP monoclonal antibodies (63D3) and anti-NK monoclonal antibodies (leu 11b) were obtained from Becton Dickinson Monoclonal Center, lnc., Mountain View, Cal. The antibody staining and Fluorescence Activated Cell Sorter (FACS) procedure was that of Rosenberg et al. (1981) (J. Immunol. V 126, p 1473). Data are expressed as percent of antibody staining in control cells (mean±SEM, n=4).

[5] = tested on: peripheral blood lymphocytes (PBL); test: [3H]Leu-Leu-OMe uptake/binding by lymphocytes; assay type: in vitro ADME, human
Experimental: Human peripheral blood lymphocytes (PBL) were incubated in the presence of [^3 H]labeled Leu-Leu-OMe at 22° C. for varying lengths of time. The incubation mixture was then centrifuged through silicone oil to separate the cells from any unbound or non-internalized [^3 HLeu-Leu-OMe. […] At 37° C., levels of [^3 H]Leu-Leu-OMe accumulation by PBL were increased above those seen at 22° C. (see Table 4).

[6] = 100 micromolar, 15 minutes (FIG. 8)
[7] = following 3-h incubation at 37° C.

## COC(=O)[C@H](CC(C)C)NC(=O)[C@@H](N)CC(C)C [Leu-Leu-OMe, L-leucyl-L-leucine methyl ester]
[1]; 12.50 micro-M, Nil 66 (Table 14)
  NK Function % Specific Lysis K562: 60%
[1]; 25.00 micro-M, Nil 66 (Table 14)
  NK Function % Specific Lysis K562: 12%
[1]; 50 micro-M, Nil 40.8 (Table 16)
  NK Function % Specific Lysis K562: 1.1%
[1]; 50.00 micro-M, Nil 66 (Table 14)
  NK Function % Specific Lysis K562: 2%
[1]; 100.00 micro-M, Nil 66 (Table 14)
  NK Function % Specific Lysis K562: < 1%
[1]; [6]
  spontaneous NK lytic units: totally eliminated
[1]; MP-depleted lymphocytes
  concentration resulting in loss of K562 target binding and complete depletion of Leu 11b stained cells: greater than 50 micromolar
[1]; MP-depleted lymphocytes, 15 minutes room temperature (FIG. 4)
  concentration above which no NK function could be detected: greater than 50 micromolar
[1]; NK Cells
  Leu--Leu--OMe Sensitivity (LD50): 35 micro-M
[1]; antibody staining (FIG. 6) and functional studies (FIG. 4)
  concentration causing maximal depletion of NK: 100 µM
[1]; concentration which results in 50% loss of human NK function, PBL 15 minutes at 22° C.
  NK Toxicity (LD50): 35 micro-M
[1]; lymphocytes exposed 15 minutes at room temperature
  concentration in excess of which NK toxic effects are seen: > 12.5 micro-M
[1]; spontaneous NK
  mean concentration required to diminish lytic activity by 75%: 35 µM
[2]
  51Cr release: no significant Leu-Leu-OMe induced ^51 Cr release
[2]; 500 micromolar
  subsequent proliferative capacity: had no discernible effect on subsequent proliferative capacity
[3]; 100 micro-M
  NK function of B6 spleen cells: complete loss of NK function
  generation of allospecific cytotoxic T cells: only partial reduction of the generation of allospecific cytotoxic T cells
[3]; single treatment with 250 micro-M
  cells with cytotoxic potential that remain: < 5%
Spleen cells; [7]
  decrease in number of Lyt-2^+ spleen cells: more than 65%
  number of L3T4^+ cells: no alteration in the number of L3T4^+ cells
Spleen cells; immediately after treatment
  loss of viable donor cells: < 5%
Hemopoietic stem cells
  effect on stem cell function, in words: had no deleterious effect on this measure of stem cell function
CTL precursors; [6]
  CTL precursors still present, of control levels: greater than 50%
CTL precursors; 15 minutes (FIG. 8)
  concentration above which all CTL precursors eliminated: greater than 250 micromolar
CTL precursors; after 6 day MLC, 15 minutes incubation (FIG. 9)
  sensitivity of CTL and AcNK following activation: became identical in sensitivity to Leu-Leu-OMe
CTL precursors; elimination of CTL precursors
  mean concentration required to diminish lytic activity by 75%: 123 ± 25 µM
[4]; single agent (Leu-Leu-OMe 250 micro-M or Gly-Phe-CHN2 10^-6 M), Nil 8.1
  Cells stained with alpha-CD16: < 0.1
[4]; single agent, Nil 18.8
  Cells stained with alpha-CD8: 7.0
[4]; single agent, Nil 60.3
  Cells stained with alpha-CD4: 87.2
NK cells
  preincubation concentration leading to loss of NK cells: 25 to 50 µM
[5]; 15 minute incubation at 22° C.
  Km: ~100 µM
  Vmax of uptake: approximately 10^-10 moles/minute/10^6 cells
[5]; 15 minute incubation at 22° C. (FIG. 11)
  external concentration of near maximal uptake: 250-500 micro-M
